Where two headings read alike, the source gives them in different places.
Key:
[1] = target: T1, 64 kDa MMP-2 (Homo sapiens, UniProt P08253); assay: OmniMMP fluorogenic substrate kinetic assay of MMP-2 activity; format: biochemical; settings: for IC50: 15 µM substrate; for IC50 values (range in words): substrate degradation assay, 64 kDa MMP-2
T1 sequence (P08253 110-660): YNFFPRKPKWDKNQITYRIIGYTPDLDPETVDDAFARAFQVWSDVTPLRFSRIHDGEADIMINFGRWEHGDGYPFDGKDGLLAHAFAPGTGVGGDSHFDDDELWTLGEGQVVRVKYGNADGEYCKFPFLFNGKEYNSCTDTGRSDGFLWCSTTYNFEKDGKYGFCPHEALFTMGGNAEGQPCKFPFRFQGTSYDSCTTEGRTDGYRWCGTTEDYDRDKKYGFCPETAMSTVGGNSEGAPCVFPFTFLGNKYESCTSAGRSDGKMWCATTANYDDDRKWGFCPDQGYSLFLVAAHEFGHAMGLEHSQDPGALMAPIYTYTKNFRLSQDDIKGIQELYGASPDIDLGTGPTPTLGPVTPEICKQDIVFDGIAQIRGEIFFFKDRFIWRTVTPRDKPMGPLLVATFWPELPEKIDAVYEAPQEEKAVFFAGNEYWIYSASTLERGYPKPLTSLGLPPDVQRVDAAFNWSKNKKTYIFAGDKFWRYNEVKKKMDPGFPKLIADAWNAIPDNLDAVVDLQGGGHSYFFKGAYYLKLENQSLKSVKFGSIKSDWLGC

[2] = system: PARP; settings: in animal models; cited from earlier work
[3] = system: PARP; settings: in vitro; cited from earlier work
[4] = target: T1, 64 kDa MMP-2; assay: Gelatinolytic activity of MMP-2 by gelatin zymography; format: biochemical
[5] = IC50 ± SD, 1 nM ZnSO4, 50 mM Tris pH 7.6, 37 °C
[6] = IC50 ± SD, 10 µM ZnSO4, 50 mM Tris pH 7.6, 10 mM CaCl2, 0.05% Brij-35, 37 °C
[7] = read-out: IC50 ± SD, 10 µM ZnSO4, 50 mM Tris pH 7.6, 10 mM CaCl2, 0.05% Brij-35, 37 °C

| Structure (SMILES) | IC50 [1, 5] | IC50 [1, 6] | IC50 values (range in words) [1] | other results |
| --- | --- | --- | --- | --- |
| NC(=O)c1cccc(N)c1 [3-AB, 3-Aminobenzamide] | 1000 ± 200 µM | 1760 ± 220 µM | millimolar range | potency for PARP inhibition [2]: millimolar range; potency for PARP inhibition [3]: micromolar range |
| Nc1cccc2c(=O)[nH]ccc12 [5-AIQ, 5-aminoisoquinolinone] |  |  | high micromolar range | IC50 [1, 7]: 102 ± 34 µM |
| C[C@H]1c2cccc(O)c2C(=O)C2=C(O)[C@]3(O)C(=O)C(C(N)=O)=C(O)[C@@H](N(C)C)[C@@H]3[C@@H](O)[C@@H]21 [Doxycycline, doxycycline] | 93 ± 12 µM | 86 ± 13 µM |  |  |
| Nc1ncnc2c1ncn2[C@@H]1O[C@H](C(=O)N2CCN(CC(=O)Nc3cccc4c3CNC4=O)CC2)[C@@H](O)[C@H]1O [EB-47, 1-piperazineacetamide-4-[1-(6-amino-9H-purin-9-yl)-1-deoxy-D-ribofuranuron]-N-(2,3-dihydro-1H-isoindol-4-yl)-1-one] |  |  | millimolar range | IC50 [1, 7]: > 3000 µM |
| CN(C)c1ccc(O)c2c1C[C@H]1C[C@H]3[C@H](N(C)C)C(O)=C(C(N)=O)C(=O)[C@@]3(O)C(O)=C1C2=O [Minocycline, minocycline] |  | 57 ± 6 µM |  |  |
| CN(C)CC(=O)Nc1ccc2[nH]c(=O)c3ccccc3c2c1 [PJ-34, 2-(dimethylamino)-N-(5,6-dihydro-6-oxophenanthridin-2-yl)acetamide] | 27 ± 10 µM | 56 ± 14 µM | high micromolar range | IC50 [4]: 9200 µM |
| c1cnc2c(c1)ccc1cccnc12 [o-Phenanthroline, o-phenanthroline] | 116 ± 9 µM |  |  |  |

— paper PMC2756481 (Biochemical and biophysical research communications, 2009)
